Experimental data taken from patent publication US4882447A, “Novel organic platinum complex and process for the preparation thereof” (priority 1987, dated 1989).

How the values were obtained:
Sarcoma cells = assay: Chemotherapeutic effect on subcutaneously inoculated sarcoma cells in ICR mice (tumor weight, i.p. once a day for 5 days); format: in vivo, female ICR mice; conditions: for Inhibition rate / Inhibition rate (%) (entry: toxic): once a day for 5 days; for Inhibition rate: tumor weight 5 days after the administration; for Inhibition rate (%) (entry: toxic): 100 mg/kg/day i.p., group of five female ICR mice; for ED30: denominator of MTD/ED30; for ED30 / MTD: doses of the table in mg/kg/day; for ED30 / MTD / Therapeutic index (MTD/ED30): i.p. once a day for 5 days; for MTD: numerator of MTD/ED30; for Therapeutic index (MTD/ED30): ratio MTD/ED30
Procedure: Chemotherapeutic effect of the organic platinum complex (I) of this invention was investigated as follows.
Sarcoma cells (1.5×10^6 cells) were inoculated subcutaneously at inguinal region of a group of five female mice (ICR mice, five week age). Twenty four hours after the inoculation, a solution of test compound was intraperitoneally administered to the mice once a day for 5 days. The weight of tumor in the mice was measured 5 days after the administration.

[1] = Renal function indices (creatinine and urea in blood) in mice; format: in vivo; conditions: dose required to induce 100% increase in the life span
Description: The organic platinum complex of the invention also has advantageous properties such as less toxicity to kidney, remarkedly higher water solubility and is easily transferred into organs in vivo in comparison with known organic platinum complexes.

Row | SMILES | Inhibition rate (Sarcoma cells; 6.25 mg/kg/day i.p.) [%] | Inhibition rate (Sarcoma cells; 12.5 mg/kg/day i.p.) [%] | Inhibition rate (Sarcoma cells; 25 mg/kg/day i.p.) [%] | Inhibition rate (Sarcoma cells; 50 mg/kg/day i.p.) [%] | Inhibition rate (%) (entry: toxic) (Sarcoma cells) | ED30 (Sarcoma cells) | MTD (Sarcoma cells) | Therapeutic index (MTD/ED30) (Sarcoma cells) | Inhibition rate (Sarcoma cells; 3.12 mg/kg/day i.p.) [%] | influence on indices of renal functions such as the concentration of creatinine and ueas in blood [1]
1 | COCCOCC(=O)NC1C(=O)[O][Pt-2]2([NH2+]C3CCCCC3[NH2+]2)[O]C1=O (stereo not drawn) [Compound 2, [2-[[(methoxyethoxy)acetyl]amino]malonato] (trans-l-1,2-diaminocyclohexane)platinum (II)] | 17.8 | 57.6 | 65.4 | 80.2 | Toxic (4/5) | 6.7 | 50 | 7.5 | – | –
2 | CC(=O)NC1C(=O)[O][Pt]2([NH]C3CCCCC3[NH]2)[O]C1=O (stereo not drawn) [Compound 1, [2-(acetylamino)malonato](trans-l-1,2-diaminocyclohexane)platinum (II)] | 36.0 | 52.3 | 64.8 | 89.4 | Toxic (5/5) | 3.6 | 50 | – | 28.4 | no influences
3 | CC(=O)NC1(C)C(=O)[O][Pt-2]2([NH2+]C3CCCCC3[NH2+]2)[O]C1=O (stereo not drawn) [Compound 3, [2-(acetylamino)-2-methylmalonato] (trans-l-1,2-diaminocyclohexane) platinum (II)] | 26.4 | 49.7 | 63.5 | 80.7 | Toxic (5/5) | 7.0 | 50 | 7.1 | – | –
